The text below walks through data of ChEMBL document CHEMBL1148050, “Sigmoidins J and K, two new prenylated isoflavonoids from Erythrina sigmoidea” (1994).

What all share (type): functional
The subject of one test is Staphylococcus aureus. The experiment in a line: Antibacterial activity against Staphylococcus aureus.
The subject of the next test is Cryptococcus neoformans. The experiment in a line: Antifungal activity against Cryptococcus neoformans.
Another test relates to Aspergillus fumigatus. The experiment in a line: Antifungal activity against Aspergillus fumigatus.

As a reminder, the MIC is the least concentration at which growth counts as inhibited. A lower MIC goes with inhibition by little substance.

Converted amounts (≈) assume the structure as drawn.

In the case of `CC(C)=CCc1cc(-c2coc3cc(O)ccc3c2=O)ccc1O` [NEOBAVAISOFLAVONE], the results for the minimum inhibitory concentration (MIC) with Staphylococcus aureus, in the test with Cryptococcus neoformans and in the test with Aspergillus fumigatus were 3.2 µg/mL (≈ 9.93 µM), 50 µg/mL (≈ 155 µM) and 50 µg/mL (≈ 155 µM), respectively.
